The values that follow come from patent publication US20160237059A1, “HETEROCYCLIC SUBSTITUTED TRIFLUOROMETHYL PYRIMIDINONES AND THEIR USE” (BAYER PHARMA AKTIENGESELLSCHAFT, priority 2013, published 2016).

What all share (type): cell-based
One assay deals with T1, human CCR2 (Homo sapiens, UniProt P41597).
T1 construct: host or cells: Chem-1 cell line
T1 sequence (P41597 1-360 isoform P41597-2): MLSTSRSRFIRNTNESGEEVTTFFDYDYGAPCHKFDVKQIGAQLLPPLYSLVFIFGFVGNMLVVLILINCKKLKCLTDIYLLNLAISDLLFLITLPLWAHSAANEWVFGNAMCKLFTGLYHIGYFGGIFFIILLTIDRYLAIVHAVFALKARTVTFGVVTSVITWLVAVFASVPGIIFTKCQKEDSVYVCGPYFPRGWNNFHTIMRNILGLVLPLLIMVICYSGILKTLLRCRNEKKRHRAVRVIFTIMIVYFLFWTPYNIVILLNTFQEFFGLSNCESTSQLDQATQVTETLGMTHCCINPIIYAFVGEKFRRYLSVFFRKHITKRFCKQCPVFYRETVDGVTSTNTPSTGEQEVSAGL
Briefly: Functional Ca2+ release test (B-1). Particulars: Chem-1 cell line transfected with human CCR2; 50% inhibition of the MCP-1 effect, MCP-1 at EC50 (about 5 nM); in some cases means of several determinations. Summed up: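 Chem-1 cells expressing human CCR2, loaded with Fluo-4 for 60 min at 37° C, were preincubated 10 min with compound (10-point, 1:3.16 dilutions), then stimulated with MCP-1 at its predetermined EC50 (about 5 nM). Ca2+ release was monitored for 120 s. IC50 came from a 4-parameter Hill fit.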

Assay [1] has as its target T2, murine CCR2 (Mus musculus, UniProt P51683).
T2 construct: host or cells: U2OS β-arrestin cell line
Put plainly: Functional β-arrestin recruiting test with murine MCP-1 (B-2b). Particulars: U2OS β-arrestin cell line transfected with murine CCR2; agonist murine MCP-1; in some cases means of several determinations. In short, it runs like this: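 In a PathHunter β-galactosidase complementation assay, U2OS cells expressing murine CCR2 were preincubated 10 min with compound (10-point, 1:3.16 dilutions), then challenged with murine MCP-1 at its predetermined EC50 for 90 min at 37 °C. Luminescence was read after 60 min, and IC50 was fitted with a 4-parameter Hill function.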

Assay [2] concerns the target T2, murine CCR2. Put plainly: Functional β-arrestin recruiting test with human MCP-1 (B-2a). To be noted: U2OS β-arrestin cell line transfected with murine CCR2; agonist human MCP-1 at EC50 (about 3 nM); in some cases means of several determinations. Summed up: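 Antagonist mode in U2OS cells expressing murine CCR2, read by PathHunter β-galactosidase complementation luminescence. Cells pre-incubated 10 min with 10-point compound dilutions (1:3.16 steps), then stimulated with human MCP-1 at its EC50 (usually about 3 nM) for 90 min at 37° C.; IC50 from 4-parameter logistic fit.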
For orientation: Activated receptors often draw arrestin, which recruitment assays turn into a signal.

T2 sequence (P51683 whole entry): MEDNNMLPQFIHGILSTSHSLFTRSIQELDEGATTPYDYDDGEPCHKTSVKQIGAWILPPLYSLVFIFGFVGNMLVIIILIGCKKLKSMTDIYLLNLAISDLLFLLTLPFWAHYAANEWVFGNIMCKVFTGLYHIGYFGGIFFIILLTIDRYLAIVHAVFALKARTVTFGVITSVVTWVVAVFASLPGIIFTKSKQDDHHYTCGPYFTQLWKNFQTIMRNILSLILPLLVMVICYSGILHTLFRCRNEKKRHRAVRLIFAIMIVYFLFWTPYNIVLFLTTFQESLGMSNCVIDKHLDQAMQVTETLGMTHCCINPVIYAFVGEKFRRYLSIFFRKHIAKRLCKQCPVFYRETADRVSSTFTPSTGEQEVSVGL

One may read the IC50 as the concentration that gives 50% inhibition. Take `Cn1cnc(-c2nc(C(F)(F)F)c(Cc3ccc(Cl)c(Cl)c3)c(=O)[nH]2)c1` [Example 52, 5-(3,4-dichlorobenzyl)-2-(1-methyl-1H-imidazol-4-yl)-6-(trifluoromethyl)pyrimidin-4(3H)-one]: the IC50 came to 1.3 nM against human CCR2, 439 nM at murine CCR2 [1] and 85 nM at murine CCR2 [2].

`O=c1[nH]c(-c2ncccc2F)nc(C(F)(F)F)c1Oc1ccc(Cl)c(C(F)(F)F)c1` [Example 39, 5-[4-chloro-3-(trifluoromethyl)phenoxy]-2-(3-fluoropyridin-2-yl)-6-(trifluoromethyl)pyrimidin-4(3H)-one]: the IC50 on human CCR2 is 0.9 nM; at murine CCR2 [1] it was 50 nM; at murine CCR2 [2] it was 20 nM.

Consider `Cc1ccc(-c2nc(C(F)(F)F)c(Oc3ccc(Cl)c(Cl)c3)c(=O)[nH]2)nc1` [Example 7, 5-(3,4-dichlorophenoxy)-2-(5-methylpyridin-2-yl)-6-(trifluoromethyl)pyrimidin-4(3H)-one], for which the figures for the IC50 against human CCR2, on murine CCR2 [1] and at murine CCR2 [2] were 2.2 nM, 435 nM and 120 nM, respectively.

Take `O=c1[nH]c(-n2cccn2)nc(C(F)(F)F)c1Cc1ccc(Cl)c(Cl)c1` [Example 53, 5-(3,4-dichlorobenzyl)-2-(1H-pyrazol-1-yl)-6-(trifluoromethyl)pyrimidin-4(3H)-one]: the IC50 on human CCR2 came to 1.8 nM; at murine CCR2 [1] it was 440 nM; at murine CCR2 [2], 67 nM.

Take `O=c1[nH]c(-c2ncccc2Cl)nc(C(F)(F)F)c1Cc1ccc(Cl)c(Cl)c1` [Example 16, 2-(3-chloropyridin-2-yl)-5-(3,4-dichlorobenzyl)-6-(trifluoromethyl)pyrimidin-4(3H)-one]: the IC50 was 2.1 nM on human CCR2, 307 nM at murine CCR2 [1] and 21 nM at murine CCR2 [2].

Consider `Nc1ccc(-c2nc(C(F)(F)F)c(Oc3ccc(Cl)c(C(F)(F)F)c3)c(=O)[nH]2)nc1` [Example 113, 2-(5-Aminopyridin-2-yl)-5-[4-chloro-3-(trifluoromethyl)phenoxy]-6-(trifluoromethyl)pyrimidin-4(3H)-one], for which the IC50 against human CCR2 was 0.4 nM; on murine CCR2 [1], 16 nM; on murine CCR2 [2], 8.3 nM.

On to `Cc1cc(-c2nc(C(F)(F)F)c(Oc3ccc(Cl)c(Cl)c3)c(=O)[nH]2)nn1C` [Example 54, 5-(3,4-dichlorophenoxy)-2-(1,5-dimethyl-1H-pyrazol-3-yl)-6-(trifluoromethyl)pyrimidin-4(3H)-one], for which the results for the half-inhibitory concentration (IC50) against human CCR2, on murine CCR2 [1] and on murine CCR2 [2] were 2.8 nM, 458 nM and 51 nM, respectively.

For `O=c1[nH]c(-n2cccn2)nc(C(F)(F)F)c1Oc1ccc(Cl)c(C(F)(F)F)c1` [Example 73, 5-[4-chloro-3-(trifluoromethyl)phenoxy]-2-(1H-pyrazol-1-yl)-6-(trifluoromethyl)pyrimidin-4(3H)-one], the IC50 against human CCR2 came to 0.4 nM; on murine CCR2 [1], 37 nM; at murine CCR2 [2] it was 12 nM.

Turning to `O=c1[nH]c(-c2ncccc2Cl)nc(C(F)(F)F)c1Oc1ccc(Cl)c(C(F)(F)F)c1` [Example 38, 2-(3-chloropyridin-2-yl)-5-[4-chloro-3-(trifluoromethyl)phenoxy]-6-(trifluoromethyl)pyrimidin-4(3H)-one], the values for the IC50 against human CCR2, on murine CCR2 [1] and at murine CCR2 [2] were 0.3 nM, 8.9 nM and 5.1 nM, respectively.

Consider `O=c1[nH]c(-c2cc[nH]n2)nc(C(F)(F)F)c1Oc1ccc(Cl)c(Cl)c1` [Example 49, 5-(3,4-Dichlorophenoxy)-2-(1H-pyrazol-3-yl)-6-(trifluoromethyl)pyrimidin-4(3H)-one], for which the IC50 at human CCR2 was 0.6 nM; on murine CCR2 [1], 12 nM; at murine CCR2 [2], 2.5 nM.

On to `O=c1[nH]c(-c2ccc3ccccc3n2)nc(C(F)(F)F)c1Oc1ccc(Cl)c(Cl)c1` [Example 178], for which the IC50 against human CCR2 was found to be 33 nM; at murine CCR2 [2], 535 nM.

As to `Cc1nc(Cc2nc(C(F)(F)F)c(Cc3ccc(Cl)c(Cl)c3)c(=O)[nH]2)cs1` [Example 174, 5-(3,4-dichlorobenzyl)-2-[(2-methyl-1,3-thiazol-4-yl)methyl]-6-(trifluoromethyl)pyrimidin-4(3H)-one], the IC50 came to 150 nM against human CCR2 and 1100 nM on murine CCR2 [2].

Take `O=c1[nH]c(-c2cccc(Cl)n2)nc(C(F)(F)F)c1Oc1ccc(Cl)c(C(F)(F)F)c1` [Example 36, 2-(6-chloropyridin-2-yl)-5-[4-chloro-3-(trifluoromethyl)phenoxy]-6-(trifluoromethyl)pyrimidin-4(3H)-one]: the half-maximal inhibitory concentration (IC50) at human CCR2 was determined as 6.2 nM; at murine CCR2 [2] it was 140 nM.

`O=c1[nH]c(Cc2ncn[nH]2)nc(C(F)(F)F)c1Cc1ccc(Cl)c(Cl)c1` [Example 92, 5-(3,4-dichlorobenzyl)-2-(1H-1,2,4-triazol-5-ylmethyl)-6-(trifluoromethyl)pyrimidin-4(3H)-one]: the results for the IC50 at human CCR2 and at murine CCR2 [2] were 57 nM and 220 nM, respectively.

`O=c1[nH]c(Nc2cn[nH]c2)nc(C(F)(F)F)c1Cc1ccc(Cl)c(C(F)(F)F)c1` [Example 105]: the figures for the half-inhibitory concentration (IC50) at human CCR2 and at murine CCR2 [2] were 41 nM and 380 nM, respectively.

With `O=c1[nH]c(-c2ncccc2Cl)nc(C(F)(F)F)c1Oc1ccc(F)c(F)c1` [Example 13, 2-(3-chloropyridin-2-yl)-5-(3,4-difluorophenoxy)-6-(trifluoromethyl)pyrimidin-4(3H)-one], the results for the IC50 at human CCR2 and at murine CCR2 [2] were 56 nM and 120 nM, respectively.

As for `Cc1cc(Nc2nc(C(F)(F)F)c(Oc3ccc(Cl)c(Cl)c3)c(=O)[nH]2)on1` [Example 109], the IC50 against human CCR2 turned out to be 59 nM; on murine CCR2 [2], 480 nM.

For `O=c1[nH]c(NC2CCOC2)nc(C(F)(F)F)c1Oc1ccc(Cl)c(Cl)c1` (stereo not shown) [Example 245], the IC50 at human CCR2 stood at 160 nM; at murine CCR2 [2] it was 1400 nM.

For `Cc1cccc(-c2nc(C(F)(F)F)c(Oc3ccc(Cl)c(Cl)c3)c(=O)[nH]2)n1` [Example 9, 5-(3,4-dichlorophenoxy)-2-(6-methylpyridin-2-yl)-6-(trifluoromethyl)pyrimidin-4(3H)-one], the concentration for half-maximal inhibition (IC50) on human CCR2 was 13 nM; at murine CCR2 [2] it was 180 nM.

On to `O=c1[nH]c(Cc2ccsc2)nc(C(F)(F)F)c1Cc1ccc(Cl)c(Cl)c1` [Example 97, 5-(3,4-dichlorobenzyl)-2-(3-thienylmethyl)-6-(trifluoromethyl)pyrimidin-4(3H)-one], for which the IC50 on human CCR2 amounted to 100 nM; at murine CCR2 [2] it was 490 nM.

Consider `O=c1[nH]c(Cn2cncn2)nc(C(F)(F)F)c1Cc1ccc(Cl)c(Cl)c1` [Example 173, 5-(3,4-dichlorobenzyl)-2-(1H-1,2,4-triazol-1-ylmethyl)-6-(trifluoromethyl)pyrimidin-4(3H)-one], for which the IC50 was 260 nM against human CCR2 and 980 nM at murine CCR2 [2].

For `O=c1[nH]c(-c2cccnc2)nc(C(F)(F)F)c1Cc1ccc(Cl)c(Cl)c1` [Example 27, 5-(3,4-dichlorobenzyl)-2-(pyridin-3-yl)-6-(trifluoromethyl)pyrimidin-4(3H)-one], the half-maximal inhibitory concentration (IC50) was found to be 35 nM at human CCR2 and 480 nM on murine CCR2 [2].

As for `O=c1[nH]c(-c2ncc(C(F)(F)F)cc2Cl)nc(C(F)(F)F)c1Cc1ccc(Cl)c(Cl)c1` [Example 21, 2-[3-chloro-5-(trifluoromethyl)pyridin-2-yl]-5-(3,4-dichlorobenzyl)-6-(trifluoromethyl)pyrimidin-4(3H)-one], the values for the IC50 on human CCR2 and at murine CCR2 [2] were 28 nM and 230 nM, respectively.

For `O=c1[nH]c(-c2cccc(Cl)n2)nc(C(F)(F)F)c1Cc1ccc(Cl)c(Cl)c1` [Example 20, 2-(6-chloropyridin-2-yl)-5-(3,4-dichlorobenzyl)-6-(trifluoromethyl)pyrimidin-4(3H)-one], the values for the IC50 against human CCR2 and at murine CCR2 [2] were 12 nM and 380 nM, respectively.

As for `COc1cccnc1Nc1nc(C(F)(F)F)c(Oc2ccc(Cl)c(C(F)(F)F)c2)c(=O)[nH]1` [Example 103, 5-[4-chloro-3-(trifluoromethyl)phenoxy]-2-[(3-methoxypyridin-2-yl)amino]-6-(trifluoromethyl)pyrimidin-4(3H)-one], the IC50 against human CCR2 stood at 50 nM; on murine CCR2 [2], 370 nM.

In the case of `Cn1cnc(Nc2nc(C(F)(F)F)c(Oc3ccc(Cl)c(Cl)c3)c(=O)[nH]2)n1` [Example 106, 5-(3,4-dichlorophenoxy)-2-[(1-methyl-1H-1,2,4-triazol-3-yl)amino]-6-(trifluoromethyl)pyrimidin-4(3H)-one], the half-maximal inhibitory concentration (IC50) at human CCR2 amounted to 180 nM; at murine CCR2 [2], 1400 nM.

Regarding `O=c1[nH]c(CN2CCOCC2)nc(C(F)(F)F)c1Cc1ccc(Cl)c(Cl)c1` [Example 261, 5-(3,4-Dichlorobenzyl)-2-(morpholin-4-ylmethyl)-6-(trifluoromethyl)pyrimidin-4(3H)-one], the IC50 against human CCR2 was 360 nM; at murine CCR2 [2] it was 630 nM.
